Patent US20080293038A1, “Method for Determining Resistance of Hiv to Nucleoside Reverse Transcriptase Inhibitor Treatment” (priority 2005, published 2008)
Like-named read-outs stand apart in the source and are kept apart here.

System: HIV-1 isolates from patient plasma samples (recombinant virus with patient PR-RT segment)
Procedure: Phenotypic drug susceptibility is measured as the concentration of drug required to inhibit virus replication by 50% (IC50). As used herein, a “fold change” or “FC” is the ratio of a viral variant IC50 divided by the IC50 of a reference HIV.
The clinical cutoff has been identified as a 3.5-fold change (“FC”) for the PHENOSENSE™ phenotypic HIV assay for FTC.
A set of reverse transcriptase mutations for FTC was generated utilizing the HIPAA-compliant database of over 48,000 linked phenotype and genotype results for patient's samples maintained by ViroLogic, Inc. (South San Francisco, Calif.). Phenotypes and genotypes were determined in the ViroLogic clinical laboratory. […] In this subset excluding the wild-type samples, a total of 13,576 samples had IC50 fold change (FC) data available for FTC.
The drug susceptibility phenotypes of the HIV-1 isolates from patient plasma samples was determined by the PHENOSENSE™ phenotype HIV assay. This assay was performed by amplifying the PR-RT segment of the pol gene from patient plasma and inserting it into a genomic HIV-1 vector. The vector contained a luciferase reporter gene to monitor recombinant virus infection in cell culture. Results were expressed as the FC in the IC50 for the patient-derived virus compared to that for a reference control virus, NL4-3. Drug dilutions were arranged to maximize curve-fitting accuracy for the range of wildtype virus susceptibilities over clinically relevant ranges of increased and decreased susceptibilities. Microtiter plates were incubated in customized incubators in which the temperature, CO2 level, and humidity were controlled to minimize variation in cell growth and medium composition changes throughout the plate.
The five rules were tested separately and with the condition that none of the other rules were verified as true, except for rule 2. […] In this exercise, because of large number of samples in each category, mixtures (if present at accessory positions) were considered as mutant. In rule 2, because of the low number of samples with T69 insertion without NAMs, the condition was defined to select samples with T69 insertion and with no mutation Q151M, K65R, M184I, M184V or M184T.

Question: Which results are given for `Nc1nc(=O)n([C@@H]2CS[C@H](CO)O2)cc1F` [FTC, emtricitabine]?
Answer: samples classified as phenotypically resistant (dataset of 13,576 patient samples (wild-type excluded) with FTC FC data, 8,589 samples resistant): 63.2%; PR % (samples phenotypically resistant to FTC) (rule 1: samples with RT mutation Q151M only, PR = FC at or above clinical cutoff 3.5 vs NL4-3): 53.8%; PR % (samples phenotypically resistant to FTC) (rule 2: samples with T69 insertion (possible NAMs), no Q151M, K65R, M184I/V/T, cutoff FC 3.5): 89.4%; PR % (samples phenotypically resistant to FTC) (rule 3: samples with RT mutation K65R only, cutoff FC 3.5): 95.2%; PR % (samples phenotypically resistant to FTC) (rule 4: samples with M184I, V or T only, cutoff FC 3.5): 100%; PR % (samples phenotypically resistant to FTC) (rule 5: samples with 4 or more NAMs (M41L, E44A/D, D67N, K70R, V118I, L210W, T215F/Y, K219E/H/N/Q/R) only, cutoff FC 3.5): 87.1%; PR % (samples phenotypically resistant to FTC) (totals: all 2794 samples meeting only one of the five rules, cutoff FC 3.5): 94.9%
